Data as given in PubChem BioAssay AID256 (DTP/NCI, 2004).
Several values for one entry are separate records, joined by “and”; a condition that tells them apart may be missing. Equal values may be shown once. Inconclusive results and toxic doses are left out. How the source made its calls: active means survival T/C of 150% or more; inactive means T/C below 125% in these data.

System: CD2F1 mice, L1210 leukemia ip, survival T/C
Test: NCI In Vivo Anticancer Drug Screen. Data for tumor model L1210 Leukemia (intraperitoneal) in CD2F1 (CDF1) mice
Details: higher = longer survival
Outline: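 Tumor-bearing mice (transplanted tumor) were split into treated and vehicle control groups, and the measured endpoint of each treated group was divided by that of its vehicle controls.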

[1] = endpoint: mean survival time, dose: 100.0 mg/kg/injection, schedule: Q04DX002 (ip), vehicle: saline with Tween-80
[2] = endpoint: mean survival time, dose: 200.0 mg/kg/injection, schedule: Q04DX002 (ip), vehicle: saline with Tween-80
[3] = endpoint: mean survival time, dose: 400.0 mg/kg/injection, schedule: Q04DX002 (ip), vehicle: saline with Tween-80
[4] = endpoint: mean survival time, dose: 100.0 mg/kg/injection, schedule: Q04DX003 (ip), vehicle: saline
[5] = endpoint: mean survival time, dose: 200.0 mg/kg/injection, schedule: Q04DX003 (ip), vehicle: saline
[6] = endpoint: mean survival time, dose: 400.0 mg/kg/injection, schedule: Q04DX003 (ip), vehicle: saline
[7] = endpoint: mean survival time, dose: 25.0 mg/kg/injection, schedule: Q01DX009 (ip), vehicle: saline with Tween-80
[8] = endpoint: mean survival time, dose: 50.0 mg/kg/injection, schedule: Q01DX009 (ip), vehicle: saline with Tween-80
[9] = endpoint: mean survival time, dose: 100.0 mg/kg/injection, schedule: Q01DX009 (ip), vehicle: saline with Tween-80
[10] = endpoint: mean survival time, dose: 200.0 mg/kg/injection, schedule: Q01DX009 (ip), vehicle: saline with Tween-80
[11] = endpoint: mean survival time, dose: 100.0 mg/kg/injection, schedule: Q01DX001 (ip), vehicle: saline
[12] = endpoint: mean survival time, dose: 200.0 mg/kg/injection, schedule: Q01DX001 (ip), vehicle: saline
[13] = endpoint: mean survival time, dose: 400.0 mg/kg/injection, schedule: Q01DX001 (ip), vehicle: saline
[14] = endpoint: mean survival time, dose: 100.0 mg/kg/injection, schedule: Q04DX003 (ip), vehicle: saline with Tween-80
[15] = endpoint: mean survival time, dose: 200.0 mg/kg/injection, schedule: Q04DX003 (ip), vehicle: saline with Tween-80
[16] = endpoint: mean survival time, dose: 400.0 mg/kg/injection, schedule: Q01DX009 (ip), vehicle: saline with Tween-80
[17] = endpoint: mean survival time, dose: 400.0 mg/kg/injection, schedule: Q04DX003 (ip), vehicle: saline with Tween-80
[18] = endpoint: mean survival time, dose: 100.0 mg/kg/injection, schedule: Q01DX001 (ip), vehicle: saline with Tween-80
[19] = endpoint: mean survival time, dose: 200.0 mg/kg/injection, schedule: Q01DX001 (ip), vehicle: saline with Tween-80
[20] = endpoint: mean survival time, dose: 400.0 mg/kg/injection, schedule: Q01DX001 (ip), vehicle: saline with Tween-80
[21] = endpoint: mean survival time, dose: 100.0 mg/kg/injection, schedule: Q04DX003 (ip), vehicle: saline sonified
[22] = endpoint: mean survival time, dose: 200.0 mg/kg/injection, schedule: Q04DX003 (ip), vehicle: saline sonified
[23] = endpoint: mean survival time, dose: 400.0 mg/kg/injection, schedule: Q04DX003 (ip), vehicle: saline sonified

Measured: T/C

O=c1ccn(C2OC(CO)C(F)(CO)C2O)c(=O)[nH]1 (stereo unspecified)
inactive: endpoint: mean survival time, dose: 12.5 mg/kg/injection, schedule: Q01DX005 (ip), vehicle: water 103 % of control | endpoint: mean survival time, dose: 25.0 mg/kg/injection, schedule: Q01DX005 (ip), vehicle: water 109 % of control | endpoint: mean survival time, dose: 50.0 mg/kg/injection, schedule: Q01DX005 (ip), vehicle: water 97 % of control | endpoint: mean survival time, dose: 100.0 mg/kg/injection, schedule: Q01DX005 (ip), vehicle: water 94 % of control | endpoint: mean survival time, dose: 200.0 mg/kg/injection, schedule: Q01DX005 (ip), vehicle: water 105 % of control

CC(C(N)=O)C1CCC2(C)CCC(=O)C(C)C2C1O (stereo unspecified)
inactive: [1] 104 % of control | [2] 120 % of control | [3] 120 % of control

CC(C)(C#N)OC(=O)Nc1cccc(Cl)c1
inactive: [1] 93 % of control | [2] 90 % of control | [3] 86 % of control

CC1CC[N+](C)(CC(=O)c2ccc(-c3ccc(C(=O)C[N+]4(C)CCC(C)CC4)cc3)cc2)CC1 (stereo unspecified)
inactive: endpoint: mean survival time, dose: 0.02 mg/kg/injection, schedule: Q04DX003 (ip), vehicle: Klucel (hydroxypropylcellulose) (HPC) 96 % of control | endpoint: mean survival time, dose: 0.04 mg/kg/injection, schedule: Q04DX003 (ip), vehicle: Klucel (hydroxypropylcellulose) (HPC) 98 % of control | endpoint: mean survival time, dose: 0.08 mg/kg/injection, schedule: Q04DX003 (ip), vehicle: Klucel (hydroxypropylcellulose) (HPC) 87 % of control and 95 % of control

O=C(C[n+]1cccc(C(=O)Nc2ccc(Cl)cc2)c1)NCc1ccccc1
inactive: [4] 97 % of control | [5] 94 % of control | [6] 102 % of control

Cc1ccc(C(=O)NCCCOc2ccc(N3C(N)=NC(N)=NC3(C)C)cc2Cl)cc1S(=O)(=O)F
inactive: endpoint: mean survival time, dose: 12.5 mg/kg/injection, schedule: Q01DX009 (ip), vehicle: saline with Tween-80 106 % of control | [7] 103 % of control | [8] 103 % of control | [9] 106 % of control

C/C=C/CC1CCCCC1
inactive: [8] 100 % of control | [9] 100 % of control | [10] 100 % of control

O=c1[nH]c(-c2ccccc2)nc(-c2ccccc2)c1Cc1cc2c(cc1O)OCC2
inactive: [11] 103 % of control | [12] 92 % of control | [13] 92 % of control

COC(=O)C1CCC(C(=O)O)CC1 (stereo unspecified)
inactive: [9] 92 % of control | [14] 101 % of control | [10] 94 % of control | [15] 97 % of control | [16] 89 % of control | [17] 95 % of control

NN(C(=O)c1ccccc1)C1CCCCC1
inactive: [9] 97 % of control

COc1ccc(CC2C(=O)OC(=O)C2Cc2ccc(OC)c(OC)c2)cc1OC (stereo unspecified)
inactive: [9] 104 % of control | [10] 108 % of control | [16] 96 % of control

COCCNc1ccc([N+](=O)[O-])cc1[N+](=O)[O-]
inactive: [18] 92 % of control | [9] 95 % of control | [19] 92 % of control | [10] 93 % of control | [20] 96 % of control | [16] 91 % of control

O=C(O)CC(C(=O)O)=C(c1ccccc1)c1ccccc1
inactive: [11] 98 % of control | [12] 95 % of control | [13] 101 % of control

COc1ccc(Cc2c[n+](C)cc3cc(N=O)c(OC)cc23)cc1O
inactive: [11] 104 % of control | [12] 102 % of control

CC(CN1CCCCC1)C(=O)c1ccc(-c2ccccc2)cc1 (stereo unspecified)
inactive: [7] 97 % of control | [8] 100 % of control | [9] 97 % of control

COC(=O)Cc1nc2ccccc2[nH]c1=O
inactive: [8] 103 % of control | [9] 92 % of control | [10] 100 % of control

COc1c2c(c(OC)c3c1C(=O)c1ccccc1C3=O)CC(O)CC2 (stereo unspecified)
inactive: endpoint: mean survival time, dose: 12.5 mg/kg/injection, schedule: Q01DX009 (ip), vehicle: Klucel (hydroxypropylcellulose) (HPC) 92 % of control | endpoint: mean survival time, dose: 25.0 mg/kg/injection, schedule: Q01DX009 (ip), vehicle: Klucel (hydroxypropylcellulose) (HPC) 94 % of control | endpoint: mean survival time, dose: 50.0 mg/kg/injection, schedule: Q01DX009 (ip), vehicle: Klucel (hydroxypropylcellulose) (HPC) 92 % of control | endpoint: mean survival time, dose: 100.0 mg/kg/injection, schedule: Q01DX009 (ip), vehicle: Klucel (hydroxypropylcellulose) (HPC) 88 % of control | endpoint: mean survival time, dose: 200.0 mg/kg/injection, schedule: Q01DX009 (ip), vehicle: Klucel (hydroxypropylcellulose) (HPC) 90 % of control

Cc1ccc(OP(=O)(c2ccccc2)c2ccccc2)cc1
inactive: [14] 98 % of control | [15] 100 % of control | [17] 100 % of control

O=C(NCc1ccco1)C1COc2ccccc2O1 (stereo unspecified)
inactive: endpoint: median survival time, dose: 25.0 mg/kg/injection, schedule: Q01DX009 (ip), vehicle: Klucel (hydroxypropylcellulose) (HPC) 103 % of control | endpoint: median survival time, dose: 50.0 mg/kg/injection, schedule: Q01DX009 (ip), vehicle: Klucel (hydroxypropylcellulose) (HPC) 101 % of control | endpoint: median survival time, dose: 100.0 mg/kg/injection, schedule: Q01DX009 (ip), vehicle: Klucel (hydroxypropylcellulose) (HPC) 103 % of control

COC1=C(C#N)CC2(C)C(CCC3C2CCC2(C)C(C(C)CCCC(C)C)CCC32)C1 (stereo unspecified)
inactive: [21] 92 % of control | [22] 93 % of control | [23] 92 % of control

Cc1cc(Br)ccc1C(=O)O
inactive: [18] 94 % of control | [19] 91 % of control | [20] 102 % of control

Nc1nnn(CCO)n1
inactive: [9] 100 % of control | [10] 97 % of control | [16] 96 % of control

CCOC(=O)CN1C(=O)C(Cl)=C(Cl)C1=O
inactive: endpoint: mean survival time, dose: 12.5 mg/kg/injection, schedule: Q04DX003 (ip), vehicle: saline with Tween-80 98 % of control

[Br][Ge]([c]1ccccc1)([c]1ccccc1)[c]1ccccc1
inactive: [8] 91 % of control | [9] 91 % of control | [10] 86 % of control

CCOc1ccc(CCN2CC34C=CC(O3)C(C(=O)O)C4C2=O)cc1OC (stereo unspecified)
inactive: [1] 95 % of control | [2] 95 % of control | [3] 91 % of control

O=C(O)CNC1CCCC1
inactive: [18] 97 % of control | [19] 100 % of control | [20] 93 % of control

C=CCS(=O)(=O)Cc1ccc([N+](=O)[O-])cc1
inactive: endpoint: mean survival time, dose: 100.0 mg/kg/injection, schedule: Q04DX002 (ip), vehicle: Klucel (hydroxypropylcellulose) (HPC) 105 % of control | endpoint: mean survival time, dose: 200.0 mg/kg/injection, schedule: Q04DX002 (ip), vehicle: Klucel (hydroxypropylcellulose) (HPC) 94 % of control | endpoint: mean survival time, dose: 400.0 mg/kg/injection, schedule: Q04DX002 (ip), vehicle: Klucel (hydroxypropylcellulose) (HPC) 105 % of control

COCC1C2CCC(C2)C1COC (stereo unspecified)
inactive: [18] 104 % of control | [19] 92 % of control | [20] 97 % of control

CCC1=CC(C)(C)CC(C)=C1 (tested in a mixture with another compound)
inactive: [8] 110 % of control | [9] 100 % of control | [14] 96 % of control | [15] 96 % of control | [17] 93 % of control

O=[N+]([O-])c1cc(S(=O)(=O)c2ccc(N3CCCC3)c([N+](=O)[O-])c2)ccc1N1CCCC1
inactive: [9] 102 % of control | [10] 95 % of control | [16] 104 % of control

CS(=O)(=O)c1cnccn1
inactive: [21] 93 % of control | [22] 95 % of control | [23] 96 % of control

COS(=O)(=O)C=C(c1ccccc1)c1ccccc1
inactive: endpoint: mean survival time, dose: 75.0 mg/kg/injection, schedule: Q01DX009 (ip), vehicle: saline 103 % of control | endpoint: mean survival time, dose: 75.0 mg/kg/injection, schedule: Q04DX003 (ip), vehicle: saline 91 % of control | endpoint: mean survival time, dose: 150.0 mg/kg/injection, schedule: Q01DX009 (ip), vehicle: saline 100 % of control | endpoint: mean survival time, dose: 150.0 mg/kg/injection, schedule: Q04DX003 (ip), vehicle: saline 94 % of control | endpoint: mean survival time, dose: 300.0 mg/kg/injection, schedule: Q01DX009 (ip), vehicle: saline 100 % of control | endpoint: mean survival time, dose: 300.0 mg/kg/injection, schedule: Q04DX003 (ip), vehicle: saline 91 % of control

COc1ccc2c(c1OC)C(=O)OC2c1cc(Br)c(O)c(C2OC(=O)c3c2ccc(OC)c3OC)c1 (stereo unspecified)
inactive: [9] 101 % of control | [14] 92 % of control | [10] 101 % of control | [15] 93 % of control | [16] 98 % of control | [17] 90 % of control

CC(=O)NC(C)C1(O)CCCCC1 (stereo unspecified)
inactive: [4] 100 % of control | [5] 97 % of control | [6] 94 % of control
